Measured values from US20150125889A1, “IN VITRO DETECTION OF MICROORGANISMS WITH AZOREDUCTASE ACTIVITY” (BIOMÉRIEUX, priority 2012, published 2015).

Tests used:
Experiment in all cases: Reduction of azo substrates over 24 hours at 35° C., microtitration plate (Example 1)
Format in all cases: cell-based
Cronobacter muytjensii = system: Cronobacter muytjensii; design: key to RED (substrate reduced or not): RED indicates whether the substrate is reduced (Y) or not (N); RED indicates whether the substrate is reduced (Y) or not (N); key to Co (growth, absorbance at 660 nm) / Decol (substrate decolourized, decrease in absorbance) / Fluo (fluorescence multiplied by 2 relative to substrate-free control): The symbol “+” means good growth/decolourization/significant increase in fluorescence; The symbol “+/−” means difficult growth; The symbol “−” means that there is no growth/decolourization/significant increase in fluorescence; conditions: E. muytjensii, substrate 35 mg/l
Method in brief: (§1)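 Readout: A660 for growth; substrate-specific absorbance/fluorescence for azo reduction. Trypcase soya broth, 35 mg/l substrate, 0.5 McFarland inoculum, 35° C., 24 h. Reduced = decolourization and/or fluorescence ≥2× substrate-free control.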

Staphylococcus aureus = system: Staphylococcus aureus; design: key to RED (substrate reduced or not): RED indicates whether the substrate is reduced (Y) or not (N); RED indicates whether the substrate is reduced (Y) or not (N); key to Co (growth, absorbance at 660 nm) / Decol (substrate decolourized, decrease in absorbance) / Fluo (fluorescence multiplied by 2 relative to substrate-free control): The symbol “+” means good growth/decolourization/significant increase in fluorescence; The symbol “+/−” means difficult growth; The symbol “−” means that there is no growth/decolourization/significant increase in fluorescence; conditions: S. aureus, substrate 35 mg/l
Method in brief: as §1

Kocuria rosea = system: Kocuria rosea; design: key to RED (substrate reduced or not): RED indicates whether the substrate is reduced (Y) or not (N); RED indicates whether the substrate is reduced (Y) or not (N); key to Co (growth, absorbance at 660 nm) / Decol (substrate decolourized, decrease in absorbance) / Fluo (fluorescence multiplied by 2 relative to substrate-free control): The symbol “+” means good growth/decolourization/significant increase in fluorescence; The symbol “+/−” means difficult growth; The symbol “−” means that there is no growth/decolourization/significant increase in fluorescence; conditions: K. rosea, substrate 35 mg/l
Method in brief: as §1

Pseudomonas aeruginosa = system: Pseudomonas aeruginosa; design: key to RED (substrate reduced or not): RED indicates whether the substrate is reduced (Y) or not (N); RED indicates whether the substrate is reduced (Y) or not (N); key to Co (growth, absorbance at 660 nm) / Decol (substrate decolourized, decrease in absorbance) / Fluo (fluorescence multiplied by 2 relative to substrate-free control): The symbol “+” means good growth/decolourization/significant increase in fluorescence; The symbol “+/−” means difficult growth; The symbol “−” means that there is no growth/decolourization/significant increase in fluorescence; conditions: P. aeruginosa, substrate 35 mg/l
Method in brief: as §1

Escherichia coli = system: Escherichia coli; design: key to RED (substrate reduced or not): RED indicates whether the substrate is reduced (Y) or not (N); RED indicates whether the substrate is reduced (Y) or not (N); key to Co (growth, absorbance at 660 nm) / Decol (substrate decolourized, decrease in absorbance) / Fluo (fluorescence multiplied by 2 relative to substrate-free control): The symbol “+” means good growth/decolourization/significant increase in fluorescence; The symbol “+/−” means difficult growth; The symbol “−” means that there is no growth/decolourization/significant increase in fluorescence; conditions: E. coli, substrate 35 mg/l
Method in brief: as §1

Candida albicans = system: Candida albicans; design: key to RED (substrate reduced or not): RED indicates whether the substrate is reduced (Y) or not (N); RED indicates whether the substrate is reduced (Y) or not (N); key to Co (growth, absorbance at 660 nm) / Decol (substrate decolourized, decrease in absorbance) / Fluo (fluorescence multiplied by 2 relative to substrate-free control): The symbol “+” means good growth/decolourization/significant increase in fluorescence; The symbol “+/−” means difficult growth; The symbol “−” means that there is no growth/decolourization/significant increase in fluorescence; conditions: substrate 35 mg/l
Method in brief: as §1

[1] = system: Staphylococcus epidermidis; design: key to RED (substrate reduced or not): RED indicates whether the substrate is reduced (Y) or not (N); RED indicates whether the substrate is reduced (Y) or not (N); key to Co (growth, absorbance at 660 nm) / Decol (substrate decolourized, decrease in absorbance) / Fluo (fluorescence multiplied by 2 relative to substrate-free control): The symbol “+” means good growth/decolourization/significant increase in fluorescence; The symbol “+/−” means difficult growth; The symbol “−” means that there is no growth/decolourization/significant increase in fluorescence; conditions: S. epidermidis, substrate 35 mg/l
Method in brief: as §1

Geotrichum candidum = system: Geotrichum candidum; design: key to RED (substrate reduced or not): RED indicates whether the substrate is reduced (Y) or not (N); RED indicates whether the substrate is reduced (Y) or not (N); key to Co (growth, absorbance at 660 nm) / Decol (substrate decolourized, decrease in absorbance) / Fluo (fluorescence multiplied by 2 relative to substrate-free control): The symbol “+” means good growth/decolourization/significant increase in fluorescence; The symbol “+/−” means difficult growth; The symbol “−” means that there is no growth/decolourization/significant increase in fluorescence; conditions: G. candidum, substrate 35 mg/l
Method in brief: as §1

Enterococcus faecalis = system: Enterococcus faecalis; design: key to RED (substrate reduced or not): RED indicates whether the substrate is reduced (Y) or not (N); RED indicates whether the substrate is reduced (Y) or not (N); key to Decol (substrate decolourized, decrease in absorbance) / Fluo (fluorescence multiplied by 2 relative to substrate-free control) / Co (growth, absorbance at 660 nm): The symbol “+” means good growth/decolourization/significant increase in fluorescence; The symbol “+/−” means difficult growth; The symbol “−” means that there is no growth/decolourization/significant increase in fluorescence; conditions: E. faecalis, substrate 35 mg/l
Method in brief: as §1

Acinetobacter baumanii = system: Acinetobacter baumanii; design: key to RED (substrate reduced or not): RED indicates whether the substrate is reduced (Y) or not (N); RED indicates whether the substrate is reduced (Y) or not (N); key to Decol (substrate decolourized, decrease in absorbance) / Fluo (fluorescence multiplied by 2 relative to substrate-free control) / Co (growth, absorbance at 660 nm): The symbol “+” means good growth/decolourization/significant increase in fluorescence; The symbol “+/−” means difficult growth; The symbol “−” means that there is no growth/decolourization/significant increase in fluorescence; conditions: A. baumannii, substrate 35 mg/l
Method in brief: as §1

## O=S(=O)([O-])c1ccc2c(N=Nc3cccc4ccccc34)c(O)c(S(=O)(=O)[O-])cc2c1.[Na+].[Na+] [Bordeaux B]
Cronobacter muytjensii
  Co (growth, absorbance at 660 nm): +
  Decol (substrate decolourized, decrease in absorbance): −
  Fluo (fluorescence multiplied by 2 relative to substrate-free control): −
  RED (substrate reduced or not): N
Staphylococcus aureus
  Co (growth, absorbance at 660 nm): +
  Decol (substrate decolourized, decrease in absorbance): −
  Fluo (fluorescence multiplied by 2 relative to substrate-free control): −
  RED (substrate reduced or not): N
Kocuria rosea
  Co (growth, absorbance at 660 nm): −
  Decol (substrate decolourized, decrease in absorbance): −
  Fluo (fluorescence multiplied by 2 relative to substrate-free control): −
Pseudomonas aeruginosa
  Co (growth, absorbance at 660 nm): +
  Decol (substrate decolourized, decrease in absorbance): −
  Fluo (fluorescence multiplied by 2 relative to substrate-free control): −
  RED (substrate reduced or not): N
Escherichia coli
  Co (growth, absorbance at 660 nm): +
  Decol (substrate decolourized, decrease in absorbance): −
  Fluo (fluorescence multiplied by 2 relative to substrate-free control): −
  RED (substrate reduced or not): N
Candida albicans
  Co (growth, absorbance at 660 nm): +
  Decol (substrate decolourized, decrease in absorbance): −
  Fluo (fluorescence multiplied by 2 relative to substrate-free control): −
  RED (substrate reduced or not): N
[1]
  Co (growth, absorbance at 660 nm): +
  Decol (substrate decolourized, decrease in absorbance): −
  Fluo (fluorescence multiplied by 2 relative to substrate-free control): −
  RED (substrate reduced or not): N
Geotrichum candidum
  Co (growth, absorbance at 660 nm): +/−
  Decol (substrate decolourized, decrease in absorbance): −
  Fluo (fluorescence multiplied by 2 relative to substrate-free control): −
  RED (substrate reduced or not): N
Enterococcus faecalis
  Co (growth, absorbance at 660 nm): +
  Decol (substrate decolourized, decrease in absorbance): +
  Fluo (fluorescence multiplied by 2 relative to substrate-free control): +
  RED (substrate reduced or not): Y
Acinetobacter baumanii
  Co (growth, absorbance at 660 nm): +
  Decol (substrate decolourized, decrease in absorbance): −
  Fluo (fluorescence multiplied by 2 relative to substrate-free control): −
  RED (substrate reduced or not): N

## CC(=O)Oc1ccc(/N=N/c2ccccc2C(=O)O)cc1 [2-(4-acetoxyphenylazo)benzoic acid, 2-(4-Acetoxyphenylazo)benzoic acid]
Cronobacter muytjensii
  Co (growth, absorbance at 660 nm): +
  Decol (substrate decolourized, decrease in absorbance): +
  Fluo (fluorescence multiplied by 2 relative to substrate-free control): +
  RED (substrate reduced or not): Y
Staphylococcus aureus
  Co (growth, absorbance at 660 nm): +
  Decol (substrate decolourized, decrease in absorbance): +
  Fluo (fluorescence multiplied by 2 relative to substrate-free control): +
  RED (substrate reduced or not): Y
Kocuria rosea
  Co (growth, absorbance at 660 nm): −
  Decol (substrate decolourized, decrease in absorbance): −
  Fluo (fluorescence multiplied by 2 relative to substrate-free control): −
Pseudomonas aeruginosa
  Co (growth, absorbance at 660 nm): +
  Decol (substrate decolourized, decrease in absorbance): −
  Fluo (fluorescence multiplied by 2 relative to substrate-free control): −
  RED (substrate reduced or not): N
Escherichia coli
  Co (growth, absorbance at 660 nm): +
  Decol (substrate decolourized, decrease in absorbance): +
  Fluo (fluorescence multiplied by 2 relative to substrate-free control): +
  RED (substrate reduced or not): Y
Candida albicans
  Co (growth, absorbance at 660 nm): +
  Decol (substrate decolourized, decrease in absorbance): −
  Fluo (fluorescence multiplied by 2 relative to substrate-free control): −
  RED (substrate reduced or not): N
[1]
  Co (growth, absorbance at 660 nm): +
  Decol (substrate decolourized, decrease in absorbance): +
  Fluo (fluorescence multiplied by 2 relative to substrate-free control): +
  RED (substrate reduced or not): Y
Geotrichum candidum
  Co (growth, absorbance at 660 nm): +
  Decol (substrate decolourized, decrease in absorbance): +
  Fluo (fluorescence multiplied by 2 relative to substrate-free control): +
  RED (substrate reduced or not): Y
Enterococcus faecalis
  Co (growth, absorbance at 660 nm): +
  Decol (substrate decolourized, decrease in absorbance): +
  Fluo (fluorescence multiplied by 2 relative to substrate-free control): +
  RED (substrate reduced or not): Y
Acinetobacter baumanii
  Co (growth, absorbance at 660 nm): +
  Decol (substrate decolourized, decrease in absorbance): +
  Fluo (fluorescence multiplied by 2 relative to substrate-free control): +
  RED (substrate reduced or not): Y
